Biological target: CycE1-CDK2 (Homo sapiens, UniProt P24941)
Assay: Cdk2 Enzymatic TR-FRET Assay
Format: biochemical
Settings: CDK2/CycE 5 nM, ATP 100 μM, 60 minutes pre-incubation with compound; read-out: CDK2 Kinase
From the text: A TR-FRET system was used to detect CycE1-CDK2 kinase activity. The assay used a Europium-labeled anti-phospho-Ser/Thr antibody and ULight™-labeled peptide substrate (eIF4E-binding protein 1). When CycE1-CDK2 phosphorylates the peptide the phosphorylated Thr is recognized by the Europium-labeled anti-phospho-Ser/Thr antibody. Upon excitation of the Europium donor fluorophore at 337 nm, energy is transferred to the ULight™ acceptor dye on the substrate, resulting in the emission of light at 665 nm. The fluorescent signal is proportional to the level of ULight™ peptide phosphorylation and to the kinase activity.
The stock solution was prepared as follows: • 1× Reaction buffer: 50 mM HEPES pH 7.5, 10 mM MgCl2, 0.5 mM TCEP, 0.01% Tween®20, 1 mM EGTA, 0.001% fatty acid free (faf)-BSA; • 1× Detection buffer: equilibrate the Detection buffer at RT for at least 20 minutes then dilute 10-fold the stock in water; • 4×ENZYME mix: CDK2/CycE enzyme (5 nM final concentration in kinase reaction) in 1× Reaction buffer; • 4×SUBSTRATE mix: 4E-BP substrate (50 nM final concentration in kinase reaction)+ATP (100 μM final concentration in kinase reaction) in 1× Reaction buffer • 2×STOP/DETECTION mix: EDTA (10 mM final concentration in assay)+Anti-Phosphate antibody (0.5 nM final concentration in assay) in 1× Detection buffer • Neutral Control: Assay with no inhibition (MAX activity) • Inhibitor Control: Assay with IC100 (1 mM) reference inhibitor JNJ7706621 (MIN activity)
The assay was assembled directly in a white, small volume, Proxiplate (PerkinElmer) as follows: • Step 1: Charge compounds=5 μL/well • Step 2: Charge kinase=2.5 μL/well→total volume 7.5 μL/well • The plate is sealed and incubated at room temperature for 60 minutes • Step 3: Substrate mix (substrate/ATP)=2.5 μL/well→total enzymatic reaction volume 10 μL/well • The plate is sealed and incubated at room temperature for 60 minutes • Step 4: Stop/Detection mix (EDTA/antibody)=10 μL/well→total volume 20 μL/well • The plate is sealed and incubated at room temperature for at least 2 hours and fluorescence signal is measured at PHERAstar FSX The reading conditions are the followings for PHERAstar FSX:
A 384-microtiter plate (MTP), containing 20 test compounds in eight-points dose response, is prepared. Test compounds dose response curves are prepared in automation in 100% DMSO in a CyBio Felix, starting from a DMSO stock solution of 10 mM. To obtain the eight-points dose-response curve, a serial dilution protocol in 100% DMSO is performed for each compound by using a 96 MTP as a support. 20 μL of the 10 mM stock solutions are transferred in row A of a 96 MTP U-bottom from column 2 to 11 for a total of 10 compounds/plate. Starting from the 10 mM stock, serial dilutions across rows, from A to B and proceeding up to H, are performed for each compound by transferring 6.3 μL of the more concentrated fluid in 13.7 μL of 100% DMSO.
In order to generate duplicate data points each well of the 96 MTP is then replicated into two wells of a 384 MTP plate for each compound and for each concentration to be tested. The 384 MTP compound plate is used as source plate in a “mother to child” process with a CyBi®-Well dispenser in which 1 μL of compound is moved into a destination plate pre-filled with 24 μL of reaction buffer, obtaining 2× concentrated compound solution.
Genedata Screener® 17.0 was used for data analysis. In the implemented workflow, the following calculations were conducted: • Calculate the Response Value (KRV) from the respective original data as follow:
HTRF Assay: Ratio=665 nm_FRET/620 nm_Ab*10000 • Calculate the % Inhibition of the compound (Inhibitory effect). KRV was normalized versus Neutral Controls and Inhibitor Controls (JNJ7706621) to obtain Activity % according to the following formula:
Activity %=−100*(x−<Neutral Control>)/(<Inhibitor Control>−<Neutral Control>) […]

| Structure (SMILES) | IC50 |
| --- | --- |
| CS(=O)(=O)N1CCC(Nc2ncc3cc(C(F)F)c(=O)n(CCOC(=O)c4ccc(S(=O)(=O)n5cncn5)cc4)c3n2)CC1 [Compound 226] | < 10 µM |
| CS(=O)(=O)N1CCC(Nc2ncc3cc(C(F)F)c(=O)n(CCOC(=O)c4ccc(S(=O)(=O)n5cnc(C6CC6)n5)cc4)c3n2)CC1 [Compound 227] | < 10 µM |
| CS(=O)(=O)N1CCC(Nc2ncc3ccc(=O)n(CC(=O)Nc4ccc(S(=O)(=O)n5cncn5)cc4)c3n2)CC1 [Compound 228] | < 10 µM |
| CS(=O)(=O)N1CCC(Nc2ncc3ccc(=O)n(CC(=O)Nc4ccc(S(=O)(=O)n5cnc(-c6ccccc6)n5)cc4)c3n2)CC1 [Compound 229] | < 10 µM |
| CS(=O)(=O)N1CCC(Nc2ncc3ccc(=O)n(CCOCCCS(=O)(=O)n4cnc(-c5ccccc5)n4)c3n2)CC1 [Compound 230] | 10 to 100 µM |
| CS(=O)(=O)N1CCC(Nc2ncc3ccc(=O)n(CCOCCCS(=O)(=O)n4cncn4)c3n2)CC1 [Compound 231] | < 10 µM |
| CS(=O)(=O)N1CCC(Nc2ncc3ccc(=O)n(CC(=O)Nc4ccc(S(=O)(=O)n5cnc(C6CC6)n5)cc4)c3n2)CC1 [Compound 232] | < 10 µM |
| CS(=O)(=O)N1CCC(Nc2ncc3ccc(=O)n(CCOCCCS(=O)(=O)n4cnc(C5CC5)n4)c3n2)CC1 [Compound 233] | < 10 µM |
| CS(=O)(=O)N1CCC(Nc2ncc3cc(C(F)F)c(=O)n(CC(=O)Nc4ccc(S(=O)(=O)n5cnc(C6CC6)n5)cc4)c3n2)CC1 [Compound 234] | < 10 µM |
| CS(=O)(=O)N1CCC(Nc2ncc3ccc(=O)n(CC(=O)NCc4ccc(S(=O)(=O)n5cnc(C6CC6)n5)cc4)c3n2)CC1 [Compound 235] | < 10 µM |
| CS(=O)(=O)N1CCC(Nc2ncc3ccc(=O)n(CC(=O)NCc4ccc(S(=O)(=O)n5cncn5)cc4)c3n2)CC1 [Compound 236] | < 10 µM |
| Cc1cc(NC(=O)Cn2c(=O)ccc3cnc(NC4CCN(S(C)(=O)=O)CC4)nc32)ccc1S(=O)(=O)n1cncn1 [Compound 237] | < 10 µM |
| Cc1cc(NC(=O)Cn2c(=O)ccc3cnc(NC4CCN(S(C)(=O)=O)CC4)nc32)ccc1S(=O)(=O)n1cnc(-c2ccccc2)n1 [Compound 238] | < 10 µM |
| Cc1cc(NC(=O)Cn2c(=O)ccc3cnc(NC4CCN(S(C)(=O)=O)CC4)nc32)ccc1S(=O)(=O)n1cnc(C2CC2)n1 [Compound 239] | < 10 µM |
| CS(=O)(=O)N1CCC(Nc2ncc3ccc(=O)n(CC(=O)NCc4ccc(S(=O)(=O)n5cnc(-c6ccccc6)n5)cc4)c3n2)CC1 [Compound 240] | < 10 µM |
| CS(=O)(=O)N1CCC(Nc2ncc3ccc(=O)n(Cc4ccc(S(=O)(=O)n5cncn5)cc4)c3n2)CC1 [Compound 241] | < 10 µM |
| CS(=O)(=O)N1CCC(Nc2ncc3ccc(=O)n(Cc4ccc(S(=O)(=O)n5cnc(-c6ccccc6)n5)cc4)c3n2)CC1 [Compound 242] | < 10 µM |
| CS(=O)(=O)N1CCC(Nc2ncc3ccc(=O)n(Cc4ccc(S(=O)(=O)n5cnc(C6CC6)n5)cc4)c3n2)CC1 [Compound 243] | < 10 µM |
| CS(=O)(=O)N1CCC(Nc2ncc3ccc(=O)n(CCCS(=O)(=O)n4cncn4)c3n2)CC1 [Compound 244] | < 10 µM |
| CS(=O)(=O)N1CCC(Nc2ncc3ccc(=O)n(CCCS(=O)(=O)n4cnc(C5CC5)n4)c3n2)CC1 [Compound 245] | < 10 µM |
| CS(=O)(=O)N1CCC(Nc2ncc3ccc(=O)n(CCCS(=O)(=O)n4cnc(-c5ccccc5)n4)c3n2)CC1 [Compound 246] | < 10 µM |
| CNc1ncc2ccc(=O)n(CC(=O)Nc3ccc(S(=O)(=O)n4cncn4)cc3)c2n1 [Compound 247] | < 10 µM |
| CNc1ncc2ccc(=O)n(CC(=O)Nc3ccc(S(=O)(=O)n4cnc(C5CC5)n4)cc3)c2n1 [Compound 248] | < 10 µM |
| CNc1ncc2ccc(=O)n(CC(=O)Nc3ccc(S(=O)(=O)n4cnc(-c5ccccc5)n4)cc3)c2n1 [Compound 249] | > 200 µM |

| Structure (SMILES) | IC50 |
| --- | --- |
| Cc1cc(S(=O)(=O)n2cncn2)ccc1NC(=O)Cn1c(=O)ccc2cnc(NC3CCN(S(C)(=O)=O)CC3)nc21 [Compound 250] | < 10 µM |
| Cc1cc(S(=O)(=O)n2cnc(C3CC3)n2)ccc1NC(=O)Cn1c(=O)ccc2cnc(NC3CCN(S(C)(=O)=O)CC3)nc21 [Compound 251] | < 10 µM |
| Cc1cc(S(=O)(=O)n2cnc(-c3ccccc3)n2)ccc1NC(=O)Cn1c(=O)ccc2cnc(NC3CCN(S(C)(=O)=O)CC3)nc21 [Compound 252] | < 10 µM |
| Cc1ncn(S(=O)(=O)c2ccc(NC(=O)Cn3c(=O)ccc4cnc(NC5CCN(S(C)(=O)=O)CC5)nc43)cc2)n1 [Compound 253] | < 10 µM |
| CC(C(=O)Nc1ccc(S(=O)(=O)n2cnc(C3CC3)n2)cc1)n1c(=O)ccc2cnc(NC3CCN(S(C)(=O)=O)CC3)nc21 (centres unmarked) [Compound 254] | < 10 µM |
| CC(C)c1ncn(S(=O)(=O)c2ccc(NC(=O)Cn3c(=O)ccc4cnc(NC5CCN(S(C)(=O)=O)CC5)nc43)cc2)n1 [Compound 255] | < 10 µM |
| CCOCc1cc2cnc(NC3CCN(S(C)(=O)=O)CC3)nc2n(CCCS(=O)(=O)n2cnc(-c3ccccc3)n2)c1=O [Compound 256] | > 200 µM |
| O=c1ccc2cnc(NC3CCOCC3)nc2n1CCCS(=O)(=O)n1cnc(C2CC2)n1 [Compound 257] | < 10 µM |
| CS(=O)(=O)N1CCC(Nc2ncc3ccc(=O)n(CC(=O)Nc4ccc(S(=O)(=O)n5cnc(C6CCC6)n5)cc4)c3n2)CC1 [Compound 258] | > 200 µM |
| CS(=O)(=O)N1CCC(Nc2ncc3ccc(=O)n(CC(=O)Nc4ccc(S(=O)(=O)n5cnc(CO)n5)cc4)c3n2)CC1 [Compound 259] | < 10 µM |
| CCOC(=O)Cc1ncn(S(=O)(=O)c2ccc(NC(=O)Cn3c(=O)ccc4cnc(NC5CCN(S(C)(=O)=O)CC5)nc43)cc2)n1 [Compound 260] | < 10 µM |
| CCOCc1cc2cnc(NC3CCN(S(C)(=O)=O)CC3)nc2n(CCCS(=O)(=O)n2cnc(C3CC3)n2)c1=O [Compound 261] | 10 to 100 µM |
| CC(C)(C)c1ncn(S(=O)(=O)c2ccc(NC(=O)Cn3c(=O)ccc4cnc(NC5CCN(S(C)(=O)=O)CC5)nc43)cc2)n1 [Compound 262] | > 200 µM |
| O=c1ccc2cnc(NC3CC(F)(F)C3)nc2n1CCCS(=O)(=O)n1cnc(C2CC2)n1 [Compound 263] | < 10 µM |
| CS(=O)(=O)N1CCC(Nc2ncc3ccc(=O)n(CCS(=O)(=O)n4cnc(C5CC5)n4)c3n2)CC1 [Compound 264] | < 10 µM |
| CCOCc1cc2cnc(NC3CCN(S(C)(=O)=O)CC3)nc2n(CCCS(=O)(=O)n2cncn2)c1=O [Compound 265] | 10 to 100 µM |
| O=c1ccc2cnc(NCC3CC3)nc2n1CCCS(=O)(=O)n1cnc(C2CC2)n1 [Compound 266] | 10 to 100 µM |
| O=c1ccc2cnc(NC3CCOC3)nc2n1CCCS(=O)(=O)n1cnc(C2CC2)n1 (centres unmarked) [Compound 267] | 10 to 100 µM |
| O=c1ccc2cnc(NCC3CCCCC3)nc2n1CCCS(=O)(=O)n1cnc(C2CC2)n1 [Compound 268] | > 200 µM |
| CC(C)CNc1ncc2ccc(=O)n(CCCS(=O)(=O)n3cnc(C4CC4)n3)c2n1 [Compound 269] | < 10 µM |
| O=c1ccc2cnc(NC3CCCCCC3)nc2n1CCCS(=O)(=O)n1cnc(C2CC2)n1 [Compound 270] | < 10 µM |
| O=c1ccc2cnc(NC3CC3)nc2n1CCCS(=O)(=O)n1cnc(C2CC2)n1 [Compound 271] | < 10 µM |
| CC(=O)Nc1ncn(S(=O)(=O)c2ccc(NC(=O)Cn3c(=O)ccc4cnc(NC5CCN(S(C)(=O)=O)CC5)nc43)cc2)n1 [Compound 272] | < 10 µM |
